The values that follow come from US7482379B2, “Propenoyl hydrazides” (priority 2004, dated 2009).

For orientation: IC50 means the concentration that inhibits the measured activity by half. Read a low IC50 as higher potency.

The target in one test is Gingipain K (Porphyromonas gingivalis, UniProt Q51817). Description: biochemical. Type of test: biochemical. Conditions: for k2 Gingipain K: Table 3, Suc-Ala-Phe-Lys-AMC substrate, pH 8.0; for kinact/KI: pH 8, read-out: kobs/[I] Gingipain K.
A further test relates to Gingipain R. Briefly: Gingipain R inhibition. The test is classed as biochemical. Conditions: Table 3.
In another test the target is Clostripain (Hathewaya histolytica, UniProt P09870). The following applies: Table 3; Z-Phe-Arg-AMC substrate; pH 7.6.
Chain of Clostripain (P09870 51-526): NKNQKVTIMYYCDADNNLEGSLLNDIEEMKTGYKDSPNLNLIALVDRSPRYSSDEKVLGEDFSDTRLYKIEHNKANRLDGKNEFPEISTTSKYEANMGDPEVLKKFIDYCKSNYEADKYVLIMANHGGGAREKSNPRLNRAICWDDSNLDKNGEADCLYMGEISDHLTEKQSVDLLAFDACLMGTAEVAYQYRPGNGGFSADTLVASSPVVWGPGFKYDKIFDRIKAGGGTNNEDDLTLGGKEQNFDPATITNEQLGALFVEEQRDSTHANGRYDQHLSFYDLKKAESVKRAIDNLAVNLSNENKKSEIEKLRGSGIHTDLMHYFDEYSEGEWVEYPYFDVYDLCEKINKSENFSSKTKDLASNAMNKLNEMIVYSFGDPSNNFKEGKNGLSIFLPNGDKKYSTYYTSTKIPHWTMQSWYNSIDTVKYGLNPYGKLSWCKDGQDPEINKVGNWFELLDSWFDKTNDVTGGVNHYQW
A further test has as its target T1, Caspase-2 (Homo sapiens, UniProt P42575).
T1 sequence (P42575 170-333 limits assumed): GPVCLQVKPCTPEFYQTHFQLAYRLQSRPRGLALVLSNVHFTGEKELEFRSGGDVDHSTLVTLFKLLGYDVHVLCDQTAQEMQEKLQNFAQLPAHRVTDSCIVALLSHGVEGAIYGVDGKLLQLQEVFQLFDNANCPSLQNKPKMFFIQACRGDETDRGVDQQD
T1 sequence (P42575 348-452 limits assumed): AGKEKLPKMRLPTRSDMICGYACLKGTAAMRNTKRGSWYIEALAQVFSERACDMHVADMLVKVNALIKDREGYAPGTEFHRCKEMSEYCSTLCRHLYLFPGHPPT
Description: Caspase-2 progress curve inhibition assay. Conditions: second-order rate constant; Cbz-VDVAD-AFC substrate; Pipes buffer pH 7.2.

For another test, the target named is T2, Caspase-3 (Homo sapiens, UniProt P42574).
T2 sequence (P42574 29-175 limits assumed): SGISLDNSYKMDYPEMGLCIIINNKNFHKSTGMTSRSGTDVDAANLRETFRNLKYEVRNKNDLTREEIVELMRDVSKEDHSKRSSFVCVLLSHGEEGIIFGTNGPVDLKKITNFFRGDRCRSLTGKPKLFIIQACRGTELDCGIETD
T2 sequence (P42574 176-277 limits assumed): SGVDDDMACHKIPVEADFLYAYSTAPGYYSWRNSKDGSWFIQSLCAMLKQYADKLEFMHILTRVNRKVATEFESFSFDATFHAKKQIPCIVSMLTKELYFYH
Description: Caspase-3 progress curve inhibition assay. The following applies: second-order rate constant; Ac-DEVD-AMC substrate; Pipes buffer pH 7.2.

The target of another test is T3, Caspase-6 (Homo sapiens, UniProt P55212).
T3 sequence (P55212 24-179 limits assumed): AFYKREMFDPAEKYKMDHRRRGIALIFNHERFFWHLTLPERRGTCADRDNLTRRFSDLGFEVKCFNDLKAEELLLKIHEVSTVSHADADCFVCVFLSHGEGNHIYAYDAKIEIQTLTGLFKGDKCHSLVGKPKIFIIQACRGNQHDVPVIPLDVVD
T3 sequence (P55212 194-293 limits assumed): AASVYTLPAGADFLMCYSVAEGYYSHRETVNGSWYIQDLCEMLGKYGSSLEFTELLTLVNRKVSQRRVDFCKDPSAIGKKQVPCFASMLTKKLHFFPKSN
Description: Caspase-6 progress curve inhibition assay. Conditions: second-order rate constant; Ac-DEVD-AMC substrate; Pipes buffer pH 7.2.

Another test deals with T4, Caspase-7 (Homo sapiens, UniProt P55210).
T4 sequence (P55210 24-198 limits assumed): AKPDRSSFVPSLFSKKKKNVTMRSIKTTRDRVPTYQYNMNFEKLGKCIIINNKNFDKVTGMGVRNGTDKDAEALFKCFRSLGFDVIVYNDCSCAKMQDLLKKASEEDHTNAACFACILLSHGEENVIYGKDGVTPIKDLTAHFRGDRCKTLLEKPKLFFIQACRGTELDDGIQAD
T4 sequence (P55210 207-303 limits assumed): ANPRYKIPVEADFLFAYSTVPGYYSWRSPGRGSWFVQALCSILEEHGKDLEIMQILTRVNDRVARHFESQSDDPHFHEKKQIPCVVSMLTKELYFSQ
Description: Caspase-7 progress curve inhibition assay. Conditions: second-order rate constant; Ac-DEVD-AMC substrate; Pipes buffer pH 7.2.

The next test deals with Caspase-8 (Homo sapiens, UniProt Q14790). Description: Caspase-8 progress curve inhibition assay. Conditions: second-order rate constant; Ac-DEVD-AMC substrate; Pipes buffer pH 7.2.
Chain of Caspase-8 (Q14790 217-374 limits assumed): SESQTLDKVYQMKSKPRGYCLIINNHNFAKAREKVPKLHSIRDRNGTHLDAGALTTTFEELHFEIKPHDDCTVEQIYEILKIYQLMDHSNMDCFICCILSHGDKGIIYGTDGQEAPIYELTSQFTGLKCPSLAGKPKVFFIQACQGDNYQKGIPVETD
Chain of Caspase-8 (Q14790 385-479 limits assumed): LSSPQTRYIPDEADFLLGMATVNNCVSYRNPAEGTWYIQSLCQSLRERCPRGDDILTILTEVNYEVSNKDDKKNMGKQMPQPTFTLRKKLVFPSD
The next test has as its target T5, Caspase-9 (Homo sapiens, UniProt P55211).
T5 sequence (P55211 1-315 limits assumed): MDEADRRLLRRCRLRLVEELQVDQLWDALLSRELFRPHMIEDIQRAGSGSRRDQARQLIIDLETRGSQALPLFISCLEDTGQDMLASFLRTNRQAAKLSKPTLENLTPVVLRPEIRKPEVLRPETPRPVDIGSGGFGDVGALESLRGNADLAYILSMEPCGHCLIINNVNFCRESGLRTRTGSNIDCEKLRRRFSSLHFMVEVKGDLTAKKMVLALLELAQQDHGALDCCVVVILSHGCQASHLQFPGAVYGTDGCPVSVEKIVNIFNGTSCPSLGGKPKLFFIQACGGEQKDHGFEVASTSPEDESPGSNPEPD
T5 sequence (P55211 331-416 limits assumed): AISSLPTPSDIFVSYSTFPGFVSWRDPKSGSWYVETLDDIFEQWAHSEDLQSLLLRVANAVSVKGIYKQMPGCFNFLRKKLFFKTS
Description: Caspase-9 progress curve inhibition assay. The following applies: second-order rate constant; Ac-LEHD-AFC substrate; Hepes buffer pH 7.0 with 0.7 M sodium citrate.

The next test concerns the target T6, Caspase-10 (Homo sapiens, UniProt Q92851).
T6 sequence (Q92851 220-415 limits assumed): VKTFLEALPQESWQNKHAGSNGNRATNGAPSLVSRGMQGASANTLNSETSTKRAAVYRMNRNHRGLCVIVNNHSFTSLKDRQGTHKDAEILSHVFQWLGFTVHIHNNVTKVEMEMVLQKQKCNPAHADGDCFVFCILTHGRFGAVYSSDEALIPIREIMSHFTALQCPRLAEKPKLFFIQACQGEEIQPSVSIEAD
T6 sequence (Q92851 416-521 limits assumed): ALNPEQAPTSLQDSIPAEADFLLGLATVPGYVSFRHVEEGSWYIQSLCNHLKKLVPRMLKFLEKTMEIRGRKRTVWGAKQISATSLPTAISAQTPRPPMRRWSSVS
Briefly: Caspase-10 progress curve inhibition assay. The following applies: second-order rate constant; Ac-DEVD-AMC substrate; Hepes/PEG buffer pH 7.0.

The next test addresses S. mansoni legumain (Schistosoma mansoni, UniProt P09841, N192C). Description: S. mansoni legumain (SmAE) inhibition assay. Type of test: biochemical. The method, then:
Studies with the propenoyl hydrazides using the schistosome legumain […], (Schistosoma mansoni asparaginyl endopeptidase) were also performed. […] The actual active site enzyme concentration is unknown. The lyophilized enzyme ([…]) was reconstituted in 1.5 mL 0.5 M sodium acetate, pH 4.5 containing 4 mM DTT, and left to stand at 37° C. for 3-4 hours to allow for auto-activation of the zymogen. In a black 96-well microtiter plate, 50 μL of activated enzyme was added to an equal volume of 0.1 M citrate-phosphate buffer pH 6.8 containing 4 mM DTT. Inhibitor stock solutions (20 mM) were prepared in DMSO. Serial dilutions (using water) of inhibitor were added (as 1 μL aliquots) to yield concentrations of between 2 and 0.00002 μM inhibitor. […] After incubating various inhibitor concentrations with enzyme, 100 μL of the same buffer containing 20 μM substrate (Cbz-Ala-Ala-Asn-AMC) was added to the wells and the reaction monitored at room temperature with linear kinetics up to 20 minutes. Inhibitors are tested in duplicate. A plot of the RFU/min versus the inhibitor concentration [μM] permitted calculation of an IC50 value and estimation of the kobs/[I].

Chain of Gingipain K (Q51817 229-1732 limits assumed): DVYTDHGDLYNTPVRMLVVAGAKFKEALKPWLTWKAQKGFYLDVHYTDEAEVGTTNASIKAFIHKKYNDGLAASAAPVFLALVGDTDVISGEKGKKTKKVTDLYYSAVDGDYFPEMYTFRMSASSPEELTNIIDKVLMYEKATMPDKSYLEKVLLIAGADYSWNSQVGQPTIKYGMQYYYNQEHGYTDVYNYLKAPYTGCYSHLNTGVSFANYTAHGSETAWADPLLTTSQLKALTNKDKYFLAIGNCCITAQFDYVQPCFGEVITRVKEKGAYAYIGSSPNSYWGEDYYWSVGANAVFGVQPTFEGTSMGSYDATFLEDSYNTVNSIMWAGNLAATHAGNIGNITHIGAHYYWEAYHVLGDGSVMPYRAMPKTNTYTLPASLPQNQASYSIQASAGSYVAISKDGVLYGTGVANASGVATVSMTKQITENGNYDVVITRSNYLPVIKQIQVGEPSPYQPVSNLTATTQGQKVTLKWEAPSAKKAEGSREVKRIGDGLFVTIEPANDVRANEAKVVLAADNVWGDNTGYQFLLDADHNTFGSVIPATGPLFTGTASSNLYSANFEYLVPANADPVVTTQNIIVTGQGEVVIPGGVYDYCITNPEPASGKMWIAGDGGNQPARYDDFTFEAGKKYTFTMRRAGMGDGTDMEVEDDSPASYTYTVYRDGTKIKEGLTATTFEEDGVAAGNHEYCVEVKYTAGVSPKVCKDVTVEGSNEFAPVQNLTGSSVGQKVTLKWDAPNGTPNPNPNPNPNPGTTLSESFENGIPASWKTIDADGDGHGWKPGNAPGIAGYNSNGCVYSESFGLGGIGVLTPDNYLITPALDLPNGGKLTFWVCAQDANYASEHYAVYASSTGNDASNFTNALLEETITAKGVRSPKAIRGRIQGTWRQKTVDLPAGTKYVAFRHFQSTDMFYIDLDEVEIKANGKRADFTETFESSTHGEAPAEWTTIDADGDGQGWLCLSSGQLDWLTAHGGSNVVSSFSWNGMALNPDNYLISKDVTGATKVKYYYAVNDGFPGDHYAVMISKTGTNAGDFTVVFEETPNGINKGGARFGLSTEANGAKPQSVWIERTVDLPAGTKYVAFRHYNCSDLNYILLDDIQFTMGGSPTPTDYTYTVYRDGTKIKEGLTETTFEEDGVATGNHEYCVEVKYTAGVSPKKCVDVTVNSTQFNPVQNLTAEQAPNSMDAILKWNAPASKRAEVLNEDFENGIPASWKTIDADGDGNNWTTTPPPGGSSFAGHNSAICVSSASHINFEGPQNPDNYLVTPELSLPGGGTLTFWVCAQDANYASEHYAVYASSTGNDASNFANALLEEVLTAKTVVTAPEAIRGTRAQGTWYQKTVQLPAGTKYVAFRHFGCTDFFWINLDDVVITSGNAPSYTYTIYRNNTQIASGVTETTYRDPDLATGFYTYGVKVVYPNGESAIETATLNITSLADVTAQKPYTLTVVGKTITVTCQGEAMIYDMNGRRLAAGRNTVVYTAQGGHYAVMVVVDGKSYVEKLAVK
Chain of S. mansoni legumain (P09841 32-291 N192C): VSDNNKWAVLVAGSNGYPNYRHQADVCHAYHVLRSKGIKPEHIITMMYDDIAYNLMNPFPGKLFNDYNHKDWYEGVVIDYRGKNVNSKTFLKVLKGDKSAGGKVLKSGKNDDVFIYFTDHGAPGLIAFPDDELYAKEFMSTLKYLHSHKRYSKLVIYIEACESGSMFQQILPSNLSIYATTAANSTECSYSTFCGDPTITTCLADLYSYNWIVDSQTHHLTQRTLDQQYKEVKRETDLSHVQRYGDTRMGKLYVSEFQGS
Description for Caspase-9: Caspases-2, -3, -6, -7, -8, -9 and -10 were expressed in E. coli and purified in Guy Salvesen's laboratory at the Burnham Institute, La Jolla, Calif., according to the methods known in the art. Inhibition rates were determined by the progress curve method known in the art. This method is suitable for measuring irreversible inhibition rates with fast inhibitors, where the inhibitor, the substrate and the enzyme are incubated together and the rate of substrate hydrolysis is measured continuously. The rate of substrate hydrolysis in the presence of the inhibitor was monitored for 20 minutes. The progress curve of inhibition, where the product formation approaches an asymptote is described in the equation ln([P∞]−[P])=ln[P∞]−A[I]t where [P] and [P∞] are the product concentrations at t and t=∞ respectively, A is the apparent rate constant in the presence of the substrate. The apparent rate constants were determined from the slopes of plots of ln ([P∞]−[P]) versus time (t) in seconds as previously described, where A=slope/[I].
For competitive and irreversible inhibition, the apparent rate constant is converted to the second order rate constant k2 by taking into consideration the effect of the substrate concentration on the apparent rate constant. The second order rate constant is described as in the equation: k2=A*(1+[S]/KM)
Assay buffer is a 1:1 mixture of buffer (200 mM Hepes, 100 mM NaCl, 0.02% (w/v) CHAPS, sucrose 20% (w/v)) and 20 mM DTT solution in H2O at pH 7.0). The assay buffer was supplemented with 0.7 M sodium citrate. The enzyme was pre-activated for 10 min at 37° C. in the assay buffer.
Description for Clostripain: Clostripain. […] All data obtained was processed by pseudo-first order kinetics,

Regarding `CC(NC(=O)OCc1ccccc1)C(=O)NC(C)C(=O)NN(CC(N)=O)C(=O)C=CC(=O)N(C)c1ccc2ccccc2c1` (stereo not drawn), on Gingipain K (Table 6, legumain specific inhibitors, NI = no inhibition after 20 minutes of incubation), the “kobs/[I] Gingipain K” value stood at 6 M⁻¹ s⁻¹.
In the case of `CC(C)C[C@H](NC(=O)CCc1ccccc1)C(=O)NN(CCCCN)C(=O)C=CC(=O)N(Cc1ccccc1)Cc1ccc2ccccc2c1`, the “k2 Gingipain K” value at Gingipain K is listed as 811,000 M^−1s^−1. In addition, the “k2 Gingipain R” value with Gingipain R is 98 M⁻¹ s⁻¹. Further, the “k2 Clostripain” value at Clostripain is on record as 17,500 M^−1s^−1.
For the compound `CC(C)CC(NC(=O)CCc1ccccc1)C(=O)NN(CCCCN)C(=O)C=CC(=O)N(C)Cc1cccc2ccccc12` (stereo not drawn), at Gingipain K, the “k2 Gingipain K” value was 975,000 M^−1s^−1. The “k2 Gingipain R” value in the test on Gingipain R is 576 M⁻¹ s⁻¹. The “k2 Clostripain” value on Clostripain was determined as 639 M⁻¹ s⁻¹.
Consider `CC(C)C[C@H](NC(=O)OCc1ccccc1)C(=O)N[C@@H](CCC(=O)O)C(=O)N[C@H](C(=O)NN(CC(=O)O)C(=O)/C=C/C(=O)N(C)Cc1cccc2ccccc12)[C@@H](C)O` (relative stereo) [N^2—(N-Benzyloxycarbonylleucylglutamylthreonyl)-N^1-carboxylmethyl-N^1-trans-(3-(methyl-1-naphthylmethyl)carbamoylpropenoyl)hydrazine], for which the “k2 Caspase-2” value on Caspase-2 is 290 M⁻¹ s⁻¹. Moreover, the “k2 Caspase-3” value on Caspase-3 is 11,200 M^−1s^−1. Also, the “k2 Caspase-6” value on Caspase-6 is listed as 21,700 M^−1s^−1. For the same compound, the “k2 Caspase-7” value at Caspase-7 is listed as 1,100 M^−1s^−1. The “k2 Caspase-8” value at Caspase-8 is 179,000 M^−1s^−1. Moreover, the “k2 Caspase-9” value on Caspase-9 is given as 5,030 M^−1s^−1. Besides, on Caspase-10, the “k2 Caspase-10” value is on record as 13,600 M^−1s^−1.
Regarding `CC(C)C[C@H](NC(=O)OCc1ccccc1)C(=O)N[C@@H](CCC(=O)O)C(=O)N[C@H](C(=O)NN(CC(=O)O)C(=O)/C=C/C(=O)N(C)CCc1ccccc1)[C@@H](C)O` (relative stereo) [N^2—(N-Benzyloxycarbonylleucylglutamylthreonyl)-N^1-carboxylmethyl-N^1-trans-(3-methylphenylethylcarbamoylpropenoyl)hydrazine], on Caspase-2, the “k2 Caspase-2” value is 50 M⁻¹ s⁻¹. Moreover, the “k2 Caspase-3” value on Caspase-3 is 2,620 M^−1s^−1. Also, the “k2 Caspase-6” value on Caspase-6 was 2,550 M^−1s^−1. In addition, the “k2 Caspase-7” value on Caspase-7 came to 290 M⁻¹ s⁻¹. The “k2 Caspase-8” value on Caspase-8 is 65,300 M^−1s^−1. Further, the “k2 Caspase-9” value on Caspase-9 turned out to be 960 M⁻¹ s⁻¹. For the same compound, on Caspase-10, the “k2 Caspase-10” value is listed as 6,190 M^−1s^−1.
The compound `C[C@H](NC(=O)OCc1ccccc1)C(=O)N[C@@H](C)C(=O)NN(CC(N)=O)C(=O)/C=C/C(=O)N1CCc2ccccc21` [Cbz-Ala-Ala-AAsn-CH═CH—CO-indoline, N^2—(N-Benzyloxycarbonylalanylalanyl)-N^1-carbamoylmethyl-N^1-trans-(3-(2,3-dihydroindol-1-yloxo)propenoyl)hydrazine] displayed an IC50 at S. mansoni legumain of 70 nM. For the same compound, on Gingipain K, the kinact/KI was 1 M⁻¹ s⁻¹.
Consider `C[C@H](NC(=O)OCc1ccccc1)C(=O)N[C@@H](C)C(=O)NN(CC(N)=O)C(=O)/C=C/C(=O)N(C)Cc1ccccc1` [Cbz-Ala-Ala-AAsn-CH═CH—CON(CH3)Bzl, N^2—(N-Benzyloxycarbonylalanylalanyl)-N^1-carbamoylmethyl-N^1-trans-(3-benzylmethylcarbamoylpropenoyl)hydrazine], for which the kinact/KI at Gingipain K turned out to be 1 M⁻¹ s⁻¹.
Consider `CCOC(=O)C=CC(=O)N(CCCN)NC(=O)C(C)NC(=O)CCc1ccccc1` (stereo not drawn) [PhPr-Ala-AOrn-CH═CH—COOEt], for which, on Gingipain K, the “k2 Gingipain K” value was 632,000 M^−1s^−1. The “k2 Gingipain R” value in the test with Gingipain R was 18 M⁻¹ s⁻¹.
For `CC(C)CC(NC(=O)CCc1ccccc1)C(=O)NN(CCCNC(=N)N)C(=O)C=CC(=O)N(Cc1ccccc1)Cc1ccccc1` (stereo not drawn) [PhPr-Leu-AArg-CH═CH—CON(CH2Ph)2], in the test on Gingipain R, the “k2 Gingipain R” value is recorded as 804,000 M^−1s^−1. The “k2 Clostripain” value on Clostripain is listed as 474,000 M^−1s^−1.
As for `CC(C)CC(NC(=O)CCc1ccccc1)C(=O)NN(CCCNC(=N)N)C(=O)C=CC(=O)NCc1ccccc1` (stereo not drawn) [PhPr-Leu-AArg-CH═CH—CONHCH2Ph], the “k2 Gingipain R” value with Gingipain R was 555,000 M^−1s^−1. For the same compound, the “k2 Clostripain” value on Clostripain was 287,000 M^−1s^−1.
As for `CCOC(=O)C=CC(=O)N(CCCNC(=N)N)NC(=O)C(CC(C)C)NC(=O)CCc1ccccc1` (stereo not drawn) [PhPr-Leu-AArg-CH═CH—COOEt], on Gingipain K, the “k2 Gingipain K” value is reported as 1,580 M^−1s^−1. On Clostripain, the “k2 Clostripain” value is 69,600 M^−1s^−1.
Consider `CC(C)C[C@H](NC(=O)CCc1ccccc1)C(=O)NN(CCCCN)C(=O)C=CC(=O)N(Cc1ccccc1)Cc1ccc(F)cc1` [PhPr-Leu-ALys-CH═CH—CON(Bzl)-p-CH2C6H4F], for which, at Gingipain K, the “k2 Gingipain K” value is listed as 801,000 M^−1s^−1. The “k2 Gingipain R” value in the test with Gingipain R amounted to 75 M⁻¹ s⁻¹. Also, at Clostripain, the “k2 Clostripain” value was 13,800 M^−1s^−1.
For the compound `CC(C)CC(NC(=O)CCc1ccccc1)C(=O)NN(CCCCN)C(=O)C=CC(=O)N(Cc1cccc2ccccc12)Cc1cccc2ccccc12` (stereo not drawn) [PhPr-Leu-ALys-CH═CH—CON(CH2-1-naphthyl2], the “k2 Gingipain K” value on Gingipain K was 1,890,000 M^−1s^−1. Further, the “k2 Gingipain R” value in the test on Gingipain R was 214 M⁻¹ s⁻¹. The “k2 Clostripain” value at Clostripain is listed as 2,250 M^−1s^−1.
On to `CC(C)CC(NC(=O)CCc1ccccc1)C(=O)NN(CCCCN)C(=O)C=CC(=O)OCc1ccccc1` (stereo not drawn) [PhPr-Leu-ALys-CH═CH—COOCH2Ph], for which, in the test with Gingipain R, the “k2 Gingipain R” value worked out at 632 M⁻¹ s⁻¹. For the same compound, on Clostripain, the “k2 Clostripain” value was 20,500 M^−1s^−1.
Take `CC(C)C[C@H](NC(=O)CCc1ccccc1)C(=O)NN(CCCN)C(=O)C=CC(=O)NCc1ccccc1` [PhPr-Leu-AOrn-CH═CH—CONHCH2Ph]: the “k2 Gingipain K” value on Gingipain K was 24,700 M^−1s^−1. Moreover, the “k2 Gingipain R” value with Gingipain R came to 71 M⁻¹ s⁻¹.
